In patent US8158389B2, “Products and methods for in vivo secretion of monatin” (priority 2005, dated 2012):

What was measured:
EmrAB efflux pump = target: T1, EmrAB efflux pump (Escherichia coli, UniProt P0AEJ0); assay: Monatin efflux per dry cell weight after induction of the EmrAB efflux pump with CCCP; assay type: cell-based; settings: for increase in monatin/dcw: 31 hours, vs control
T1 construct: endogenous in cells; host or cells: E. coli MG1655 with aspC/proA on pProNde; E. coli BL21 (DE3) with aspC/proA on pET30
T1 sequence (P02930 23-493): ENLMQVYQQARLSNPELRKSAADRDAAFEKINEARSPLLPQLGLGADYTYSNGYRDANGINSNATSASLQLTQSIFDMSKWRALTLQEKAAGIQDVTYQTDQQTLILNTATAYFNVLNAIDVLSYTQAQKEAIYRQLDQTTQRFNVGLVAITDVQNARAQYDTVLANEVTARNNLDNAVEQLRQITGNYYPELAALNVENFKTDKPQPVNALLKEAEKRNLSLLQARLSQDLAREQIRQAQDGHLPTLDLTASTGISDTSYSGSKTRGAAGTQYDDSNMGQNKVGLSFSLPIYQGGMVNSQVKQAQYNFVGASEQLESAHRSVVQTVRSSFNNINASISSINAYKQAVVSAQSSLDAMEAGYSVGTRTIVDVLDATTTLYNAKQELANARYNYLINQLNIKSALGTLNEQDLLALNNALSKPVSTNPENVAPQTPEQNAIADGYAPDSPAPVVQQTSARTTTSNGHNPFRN
T1 sequence (P0AEJ0 whole entry): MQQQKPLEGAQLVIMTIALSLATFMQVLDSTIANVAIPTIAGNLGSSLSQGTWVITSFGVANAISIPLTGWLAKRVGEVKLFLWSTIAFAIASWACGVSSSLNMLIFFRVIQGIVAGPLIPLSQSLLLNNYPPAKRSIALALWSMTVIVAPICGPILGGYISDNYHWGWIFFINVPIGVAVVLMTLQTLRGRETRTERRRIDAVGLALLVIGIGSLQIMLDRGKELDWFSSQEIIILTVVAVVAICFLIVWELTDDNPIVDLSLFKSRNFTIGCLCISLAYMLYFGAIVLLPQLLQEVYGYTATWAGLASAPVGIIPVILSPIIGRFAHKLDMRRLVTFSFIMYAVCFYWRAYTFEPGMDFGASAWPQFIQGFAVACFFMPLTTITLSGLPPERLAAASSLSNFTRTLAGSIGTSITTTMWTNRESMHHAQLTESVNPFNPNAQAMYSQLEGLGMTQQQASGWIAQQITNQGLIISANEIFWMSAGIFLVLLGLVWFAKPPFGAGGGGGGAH
T1 sequence (P27303 whole entry, further chain): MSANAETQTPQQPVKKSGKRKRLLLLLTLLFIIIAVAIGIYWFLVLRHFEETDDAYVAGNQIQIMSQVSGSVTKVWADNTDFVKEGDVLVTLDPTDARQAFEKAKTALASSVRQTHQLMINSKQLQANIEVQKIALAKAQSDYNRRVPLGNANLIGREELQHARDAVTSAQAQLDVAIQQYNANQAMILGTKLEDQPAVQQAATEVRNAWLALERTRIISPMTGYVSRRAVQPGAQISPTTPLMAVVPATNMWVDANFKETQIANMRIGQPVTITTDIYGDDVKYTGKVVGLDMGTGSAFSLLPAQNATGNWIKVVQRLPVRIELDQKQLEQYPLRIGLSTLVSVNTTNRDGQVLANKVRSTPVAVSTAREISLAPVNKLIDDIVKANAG
Procedure: The strains used for the experiment included E. coli MG1655 : : aspC/proA/pProNde and E. coli BL21 (DE3) : : aspC/proA/pET30. For inoculum, the E. coli strains were grown overnight at 37° C. and 250 rpm in Luria-Bertani (“LB”) medium with 50 μg/mL kanamycin.
For the experimental treatments, Trp-1+ glucose medium, a minimal medium that has been used for increased production of tryptophan in E. coli cells (Zeman, et al. Folia Microbiol. 35:200-204, (1990)), was prepared as follows. To 800 mL nanopure water the following reagents were added: 2 g (NH4)2SO4 and 13.6 g KH2PO4. The pH was adjusted to 7.0, the volume was increased to 948 mL, and the medium was autoclaved. Following sterilization, 0.2 g MgSO4.7H2O, 0.01 g CaCl2.2H2O, and 0.5 mg FeSO4.7H2O were added to the medium in a 1.8 mL volume followed by addition of 0.2 mL of Neidhardt's micronutrient solution. Neidhardt, F. C., et al., “Culture medium for Enterobacteria,” J. Bacteriol. 119:736-746 (1974). Neidhardt's medium includes (per liter): 0.18 g (NH4)6(MO7)24.4H2O, 1.24 g H3BO3, 0.36 g CoCl2.6H2O, 0.12 g CuSO4 (anhydrous), 0.8 g MnCl2.4H2O, and 0.14 g ZnSO4.7H2O. A 50% glucose solution was prepared separately and sterile-filtered. Forty mL of glucose solution and 10 mL of 1 M 3-Morpholinopropanesulfonic acid (“MOPS”) buffer were added to the base medium (950 mL) for a 1 L final volume.
Conditions for the treatments included 250 rpm agitation throughout and 37° C. up to induction, then, 30° C. following induction. At 0.5-0.6 OD600 nm, induction of the plasmid genes was initiated. At induction, 0.5 mM IPTG, 0.5% arabinose, 0.5 mM pyridoxine hydrochloride, and 0.2 mL of Balch's vitamins were added. […] Some treatments included 10 μM carbonyl cyanide 3-chlorophenylhydrazone (“CCCP”) addition to initial medium. One treatment included an additional 10 μM CCCP dose at 3.5 hours following induction. CCCP induces the EmrB efflux system. Samples for monatin analysis and dry cell weight determination were taken at 10, 15.5, 25.6 and 31 hours. Monatin analysis was preformed as described in Example 13.
Analyses of mixtures for monatin and tryptophan derived from in vitro or in vivo biochemical reactions were performed using a Waters/Micromass liquid chromatography-tandem mass spectrometry (“LC/MS/MS”) instrument including a Waters 2795 liquid chromatograph with a Waters 996 Photo-Diode Array (PDA) absorbance monitor placed in series between the chromatograph and a Micromass Quattro Ultima triple quadrupole mass spectrometer. LC separations were made using an Xterra MS C8 reversed-phase chromatography column, 2.1 mm×250 mm at 40° C. The LC mobile phase consisted of A) water containing 0.05% (v/v) trifluoroacetic acid and B) methanol containing 0.05% (v/v) trifluoroacetic acid.
The gradient elution was linear from 5% B to 35% B, 0-4 min, linear from 35% B to 60% B, 4-6.5 min, linear from 60% B to 90% B, 6.5-7 min, isocratic at 90% B 7-11 min, linear from 90% B to 95% B, 11-12 min, linear from 95% B to 5% B, 12-13 min, with a 5 min re-equilibration period between runs. The flow rate was 0.25 mL/min, and PDA absorbance was monitored from 200 nm to 400 nm. All parameters of the ESI-MS were optimized and selected based on generation of protonated molecular ions ([M+H]^+) of the analytes of interest, and production of characteristic fragment ions. The following instrumental parameters were used for LC/MS/MS Multiple Reaction Monitoring (“MRM”) analysis of monatin and tryptophan: Capillary: 3.5 kV; Cone: 40 V; Hex 1: 20 V; Aperture: 0 V; Hex 2: 0 V; Source temperature: 100° C.; Desolvation temperature: 350° C.; Desolvation gas: 500 L/h; Cone gas: 50 L/h; Low mass resolution (Q1): 12.0; High mass resolution (Q1): 12.0; Ion energy: 0.2; Entrance: −5 V; Collision Energy: 8; Exit: 1V; Low mass resolution (Q2): 15; High mass resolution (Q2): 15; Ion energy (Q2): 3.5; Multiplier: 650. […]

[1] = tested on: E. coli BL21DE3ΔemrB::aspCproApET30; assay: Growth (optical density) with CCCP, emrB knockout mutant; assay type: cell-based, Escherichia coli; settings: 20 μM CCCP
Procedure: (§1) Single chloramphenicol-resistant colonies were purified by restreaking on appropriate selective media and single colonies were tested by PCR as previously described for the BW25113 knockout strains, to verify the presence of the emrB and acrAB knockouts. The effects of the emrB and acrAB knockouts on the EmrAB and AcrAB transporter systems respectively were determined by assessing the phenotype of the transport mutants using appropriate antibiotics and comparison to wild type control microorganisms as shown in Table 3.1 and Table 3.2 below.

[2] = tested on: E. coli BL21DE3::aspCproApET30; assay: Growth (optical density) with CCCP, wild type control; assay type: cell-based, Escherichia coli; settings: 20 μM CCCP
Procedure: as §1

[3] = tested on: E. coli MG1655::pCECNde/4978 DAT/SEQ ID NO. 42; assay: R,R monatin excreted by E. coli with D-amino acid treatment; assay type: cell-based, Escherichia coli; settings: 5 mM D-amino acid treatment added 3 hours following induction
Procedure: For inoculum preparation, the E. coli MG1655 : : pCECNde/4978 DAT/SEQ ID NO. 42 were grown overnight at 37° C. with shaking at 250 rpm in Luria-Bertani (“LB”) medium with 25 μg/mL chloramphenicol. For the experimental treatments, Trp-1+glucose medium, a minimal medium that has been used for increased production of tryptophan in E. coli cells (Zeman et al. Folia Microbiol. 35:200-4, 1990), was prepared as follows. To 800 mL nanopure water the following reagents were added: 2 g (NH4)2SO4, 13.6 g KH2PO4. The pH was adjusted to 7.0, the volume was increased to 948 mL, and the medium was autoclaved. Following sterilization, 0.2 g MgSO4.7H2O, 0.01 g CaCl2.2H2O, and 0.5 mg FeSO4.7H2O were added to the medium in a 1.8 mL volume followed by addition of 0.2 mL of Neidhardt's micronutrient solution (Neidhardt F. C., Bloch P. L., and Smith D. F., 1974. Culture medium for Enterobacteria. J. Bacteriol. 119: 736-746). Neidhardt's medium includes (per liter): 0.18 g (NH4)6(MO7)24.4H2O, 1.24 g H3BO3, 0.36 g CoCl2.6H2O, 0.12 g CuSO4 (anhydrous), 0.8 g MnCl2.4H2O, and 0.14 g ZnSO4.7H2O. A 50% glucose solution was prepared separately and sterile-filtered. […]
The monatin from the 48 hour samples was concentrated via a solid phase extraction (“SPE”) column (see Example 27). Then, the R,R and S,S stereoisomers were analyzed by the method of Example 13.

[4] = E. coli BL21 (DE3)::aspCproA pET30, 10 μM CCCP
[5] = E. coli BL21 (DE3)::aspCproA pET30, 10 μM CCCP + 10 μM CCCP
[6] = E. coli MG1655::aspCproA pProNde, 10 μM CCCP

Row | SMILES | increase in monatin/dcw (EmrAB efflux pump; E. coli BL21 (DE3)::aspC proA pET30, one addition (10 μM) of CCCP) | increase in monatin/dcw (EmrAB efflux pump; E. coli BL21 (DE3)::aspC proA pET30, two additions (20 μM) of CCCP) | Monatin/dry cell weight at run hour 10 (EmrAB efflux pump; [4]) | Monatin/dry cell weight at run hour 15.5 (EmrAB efflux pump; [4]) | Monatin/dry cell weight at run hour 25.6 (EmrAB efflux pump; [4]) | Monatin/dry cell weight at run hour 31 (EmrAB efflux pump; [4]) | Monatin/dry cell weight at run hour 10 (EmrAB efflux pump; [5]) | Monatin/dry cell weight at run hour 15.5 (EmrAB efflux pump; [5]) | Monatin/dry cell weight at run hour 25.6 (EmrAB efflux pump; [5]) | Monatin/dry cell weight at run hour 31 (EmrAB efflux pump; [5]) | Monatin/dry cell weight at run hour 15.5 (EmrAB efflux pump; [6]) | Monatin/dry cell weight at run hour 25.6 (EmrAB efflux pump; [6]) | Monatin/dry cell weight at run hour 31 (EmrAB efflux pump; [6]) | increase in monatin/dcw (EmrAB efflux pump; E. coli MG1655::aspCproA pProNde) | decrease in growth ([1]; deletion strain) | Optical Density @ 600 nM, 6 hours ([1]; emrB knockout mutant) | Optical Density @ 600 nM, 24 hours ([1]; emrB knockout mutant) | Optical Density @ 600 nM, 6 hours [2] | Optical Density @ 600 nM, 24 hours [2] | 48 hour Monatin/dry cell wt., Total Monatin [3]
1 | N#CC(C#N)=NNc1cccc(Cl)c1 [CCCP, carbonyl cyanide 3-chlorophenylhydrazone] | greater than 1.8 fold | > 3.5 fold | 6.4 mg/g | 22.5 mg/g | 34.3 mg/g | 33.0 mg/g | 16.2 mg/g | 38.0 mg/g | 52.1 mg/g | 64.2 mg/g | 0.7 mg/g | 6.7 mg/g | 12.4 mg/g | 2 fold | eighty fold/ninety nine percent decrease in growth | 0.024 | 0.014 | 0.034 | 1.113 | –
2 | C[C@@H](N)C(=O)O [D-alanine] | – | – | – | – | – | – | – | – | – | – | – | – | – | – | – | – | – | – | – | 0.33 mg/g
3 | N[C@H](CCC(=O)O)C(=O)O [D-glutamate] | – | – | – | – | – | – | – | – | – | – | – | – | – | – | – | – | – | – | – | 0.47 mg/g
